Format in all cases: cell-based, human
Assay [1] has as its system LNCaP. As to the kind of experiment: 3H thymidine proliferation assay, LNCaP. The note with it: 3H thymidine method, 72 h incubation, read-out: EC50, LNCaP. On the procedure:
(§1) This example generally describes the procedures used to assay the antiproliferative activity of compounds of this invention or their conjugates. Human tumor cell lines were obtained from the American Type Culture Collection (ATCC), P.O. Box 1549, Manassas, Va. 20108, USA, and cultured according to instruction from the ATCC. Cells were seeded at 1.0×10^3 or 1.0×10^4 cells/well in 96-well plates for 3 h for ATP assays or ^3H thymidine assays, respectively. 1:3 serial dilutions of free (unconjugated) compounds or their conjugates were added to the wells. Plates were allowed to incubate for 24 to 72 h. The ^3H thymidine plates were pulsed with 1.0 μCi of ^3H-thymidine per well for the last 24 hours of the total incubation period, harvested, and read on a Top Count Scintillation Counter (Packard Instruments, Meriden, Conn.). ATP levels in the ATP plates were measured using the […]-GLO® Luminescent Cell Viability kit following the manufacturer's manual and read on a GLOMAX® 20/20 luminometer (both from Promega, Madison, Wis., USA). The EC50 values—the concentration at which an agent inhibits or reduces cell proliferation by 50% —were determined using PRISM™ software, version 4.0 (GraphPad Software, La Jolla, Calif., USA).
(§2) Using the ^3H thymidine or the ATP luminescence assay, or both, the activities of compounds of this invention were assayed against the following cancer cell lines: HCT-15 (colorectal cancer, multi-drug resistant (MDR)); Hep3B (liver cancer); LNCaP (prostate cancer, androgen receptor positive (AR^+)); MDA-MB-231 (breast cancer, estrogen receptor, progesterone receptor, and Her2 negative (triple negative)); A2058 (melanoma); U-87 MG (glioblastoma); NCI-H460 (NSCLC); A549 (NSCLC); HPAC (pancreatic cancer, primary); PC3 (prostate cancer, AR); BT474 (breast cancer, Her2 highly positive (Her2hi)); SKOV3 (ovarian cancer, Her2hi); 786-O (renal cancer); UO-31 (renal cancer, MDR); NCI-H740 (SCLC); DMS53 (SCLC); SK-BR3 (breast cancer, Her2hi); ZR-75 (breast cancer, estrogen receptor positive); OVCAR3 (ovarian cancer); HL-60 (APL); OVCAR8/Adr (ovarian cancer, MDR); CEM-Cl (ALL); Nomo-1 (AML); RPMI-8226 (MM)); Raji (lymphoma); SW-480 (colorectal cancer, metastatic); SW-620 (colorectal cancer); and H226 (lung cancer). (Not all compounds were assayed against all cell lines.)
(§3) Table 2 provides the data for proliferation assays using the ^3H thymidine method, with an incubation period of 72 h.

For assay [2], the system named is U-87 MG. As to the kind of experiment: 3H thymidine proliferation assay, U-87 MG. As to conditions: 3H thymidine method, 72 h incubation, read-out: EC50, U-87 MG. The procedure: as §1, §2, §3
For assay [3], the system named is HPAC. As to the kind of experiment: 3H thymidine proliferation assay, HPAC. As to conditions: 3H thymidine method, 72 h incubation, read-out: EC50, HPAC. On the procedure:
as §1, §2, §3

Assay [4] has as its system SKOV3. The assay is described as follows: 3H thymidine proliferation assay, SKOV3. As to conditions: 3H thymidine method, 72 h incubation, read-out: EC50, SKOV3. On the procedure: as §1, §2, §3
In assay [5] the test system is SK-BR3. The assay is described as follows: 3H thymidine proliferation assay, SK-BR3. As to conditions: 3H thymidine method, 72 h incubation. On the procedure:
as §1, §2, §3

Assay [6] has as its system ZR-75. As to the kind of experiment: 3H thymidine proliferation assay, ZR-75. As to conditions: 3H thymidine method, 72 h incubation, read-out: EC50, ZR-75. On the procedure: as §1, §2, §3
Assay [7] relates to CEM-C1. The assay is described as follows: 3H thymidine proliferation assay, CEM-C1. As to conditions: 3H thymidine method, 72 h incubation, read-out: EC50, CEM-C1. On the procedure:
as §1, §2, §3

Assay [8] has as its system RPMI-8226. As to the kind of experiment: 3H thymidine proliferation assay, RPMI-8226. As to conditions: 3H thymidine method, 72 h incubation, read-out: EC50, RPMI-8226. On the procedure: as §1, §2, §3
The subject of assay [9] is U-87 MG. The assay is described as follows: ATP luminescence proliferation assay, U-87 MG. As to conditions: ATP luminescence, 72 h incubation, read-out: EC50 U-87 MG (72 h). On the procedure: as §1, §2
(§4) Table 3 provides the data for the ATP luminescence proliferation assays, with an incubation period of 48, 72, or 96 h, as noted.

For assay [10], the system named is NCI-H460. The assay is described as follows: ATP luminescence proliferation assay, NCI-H460. As to conditions: ATP luminescence, NCI-H460, 72 h incubation, read-out: EC50 NCI-H460 (72 h). The procedure:
as §1, §2, §4

Assay [11] relates to PC3. As to the kind of experiment: ATP luminescence proliferation assay, PC3. The note with it: ATP luminescence, PC3, 48 h incubation, read-out: EC50 PC3 (48 h). The procedure:
as §1, §2, §4

The test system of assay [12] is SKOV3. As to the kind of experiment: ATP luminescence proliferation assay, SKOV3. As to conditions: ATP luminescence. On the procedure:
as §1, §2, §4

The test system of assay [13] is 786-O. The assay is described as follows: ATP luminescence proliferation assay, 786-O. The note with it: ATP luminescence, 786-O. The method in brief: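 Read-out: luminescent ATP cell viability after 48, 72 or 96 h incubation, as noted, with 1:3 serial dilutions of unconjugated compounds or their conjugates. Plating was 1.0×10^3 cells/well, 3 h before dosing. EC50 = concentration giving 50% inhibition of proliferation.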

In assay [14] the test system is UO-31. As to the kind of experiment: ATP luminescence proliferation assay, UO-31. The note with it: ATP luminescence, UO-31, 48 h incubation, read-out: EC50 UO-31 (48 h). On the procedure: as §1, §2, §4
For assay [15], the system named is DMS53. The assay is described as follows: ATP luminescence proliferation assay, DMS53. The note with it: ATP luminescence, DMS53, 72 h incubation, read-out: EC50 DMS53 (72 h). On the procedure: as §1, §2, §4
The subject of assay [16] is Nomo-1. The assay is described as follows: ATP luminescence proliferation assay, Nomo-1. As to conditions: ATP luminescence, Nomo-1, 72 h incubation, read-out: EC50 Nomo-1 (72 h). The procedure: as §1, §2, §4
Assay [17] concerns Raji. As to the kind of experiment: ATP luminescence proliferation assay, Raji. As to conditions: ATP luminescence, 72 h incubation, read-out: EC50 Raji (72 h). The procedure:
as §1, §2, §4

The subject of assay [18] is SW-480. The assay is described as follows: ATP luminescence proliferation assay, SW-480. As to conditions: ATP luminescence, SW480, 96 h incubation, read-out: EC50 SW480 (96 h). The procedure: as §1, §2, §4
Where [19] appears, read: Homo sapiens, SK-OV-3, SKOV3, 48 h incubation, read-out: EC50 SKOV3 (48 h).
The mark [20] stands for this setting: Homo sapiens, 786-0, 48 h incubation, read-out: EC50 786-O (48 h).

The values below come from US20130204033A1, “ANTIPROLIFERATIVE COMPOUNDS, CONJUGATES THEREOF, METHODS THEREFOR, AND USES THEREOF” (Medarex, Inc., priority 2009, published 2013).

Read-outs that look alike come from different tables or passages of the source.

On to `CC[C@H](C)[C@H](NC(=O)[C@H]1CCCCN1C)C(=O)N(COC(=O)CC(C)C)[C@H](C[C@@H](O)c1nc(C(=O)N[C@@H](Cc2ccccc2)C(=O)OC)cs1)C(C)C` [Compound 28], for which the EC50 is 64 nM in assay [1]; greater than 100 nM in assay [2]; 34 nM in assay [3]; 9.9 nM in assay [4]; greater than 100 nM in [5]; 4.3 nM in [6]. Also, the EC50 in assay [7] turned out to be 10 nM; in assay [8], 8.7 nM; in assay [9], 18 nM; in assay [10], 35 nM; in assay [11], 5.8 nM; in assay [12] (SKOV3, 72 h incubation, read-out: EC50 SKOV3 (72 h)) it was 11 nM. Further, the concentration giving a half-maximal response (EC50) in [13] (72 h incubation, read-out: EC50 786-O (72 h)) amounted to 29 nM; in [14] it was 5.8 nM; in assay [15] it was 58 nM; in assay [16], 0.82 nM; in assay [17], 15 nM; in [18], 36 nM.

Take `CC[C@H](C)[C@H](NC(=O)[C@H]1CCCCN1C)C(=O)N(COC(=O)CC(C)C)[C@H](C[C@@H](OC(C)=O)c1nc(C(=O)N[C@@H](Cc2ccccc2)C[C@H](C)C(=O)O)cs1)C(C)C` [Tub D, tubulysin D, reference compound]: the EC50 was determined as 0.36 nM in [1]; 0.014 nM in [2]; 0.015 nM in assay [3]; 0.039 nM in [4]; 1.7 nM in [6]; 0.018 nM in [7]. Further, the EC50 is 0.037 nM in assay [8]; 0.0054 nM in [9]; 0.0076 nM in assay [10]; 0.039 nM in assay [11]; 0.029 nM in assay [12] (SKOV3, 48 h incubation, read-out: EC50 SKOV3 (48 h)); 0.022 nM in assay [13] (48 h incubation, read-out: EC50 786-O (48 h)). Also, the EC50 was 0.099 nM in assay [14]; 0.069 nM in assay [15]; 0.013 nM in assay [16]; 0.0048 nM in assay [17]; 0.02 nM in [18].

In the case of `Nc1ccc(C(=O)Nc2ccc3[nH]c(C(=O)N4C[C@@H](CCl)c5c4cc(O)c4ccccc54)cc3c2)cc1` [CBI, reference compound], the EC50 in assay [1] (Homo sapiens, LNCaP) stood at 0.051 nM; in [2] (Homo sapiens, U-87 MG), 0.14 nM; in [3] (Homo sapiens, HPAC), 0.063 nM; in [4] (Homo sapiens, SK-OV-3) it was 0.047 nM; in assay [6] (Homo sapiens, ZR75) it was 1.5 nM; in assay [7] (Homo sapiens, CEM/C1), 0.11 nM. The EC50 in [8] (Homo sapiens, RPMI-8226) stood at 0.12 nM; in assay [9] (Homo sapiens), 3.3 nM; in assay [10] (Homo sapiens) it was 0.64 nM; in assay [11] (Homo sapiens, PC-3) it was 12 nM; in assay [12] (setting [19]) it was 3 nM; in [13] (setting [20]) it was 1.6 nM. The EC50 was found to be 4.2 nM in assay [14] (Homo sapiens); 3.8 nM in assay [15] (Homo sapiens, DMS-53); 0.37 nM in assay [16] (Homo sapiens); 2.1 nM in assay [17] (Homo sapiens); 0.92 nM in assay [18] (Homo sapiens).

In the case of `COc1cccc2c1C(=O)c1c(O)c3c(c(O)c1C2=O)C[C@@](O)(C(=O)CO)C[C@@H]3O[C@H]1C[C@H](N)[C@H](O)[C@H](C)O1` [Dox, doxorubicin, reference compound], the EC50 in [1] (Homo sapiens, LNCaP) stood at 130 nM; in assay [2] (Homo sapiens, U-87 MG), 106 nM; in [3] (Homo sapiens, HPAC), 126 nM; in [4] (Homo sapiens, SK-OV-3) it was 163 nM; in assay [6] (Homo sapiens, ZR75), 794 nM; in assay [7] (Homo sapiens, CEM/C1), 144 nM. For the same compound, the EC50 stood at 68 nM in assay [8] (Homo sapiens, RPMI-8226); 324 nM in assay [9] (Homo sapiens); 92 nM in [10] (Homo sapiens); 1080 nM in assay [11] (Homo sapiens, PC-3); 674 nM in assay [12] (setting [19]); 360 nM in assay [13] (setting [20]). Besides, the EC50 in assay [14] (Homo sapiens) was 908 nM; in assay [15] (Homo sapiens, DMS-53) it was 755 nM; in assay [16] (Homo sapiens), 338 nM; in assay [17] (Homo sapiens), 301 nM; in [18] (Homo sapiens), 215 nM.
